Experiments:
[1] = tested on: Wnt1-stimulated β-catenin signaling in HEK293-TB cells; experiment: luciferase reporter assay, HEK293-TB cells transfected with pCDNA3.2-Wnt1; format: cell-based
[2] = tested on: Wnt3a binding to FZD1 CRD, FZD2 CRD, and FZD7 CRD; experiment: ELISA of biotinylated Wnt3a binding to FZD CRD-Fc; conditions: peptide 0-10 μM
Description: (§1) 384-well Maxisorp plates (cat. no. 464718; Thermo Scientific) were incubated with 30 μL of Neutravidin (cat. no. 31000, Thermo Scientific; 2 μg/mL in PBS) overnight at 4° C. Plates were then washed with PBST and blocked with PBS/1% BSA for 1 hour at RT and then washed with PBST prior to further processing. The binding assay was conducted in 96 well plates (cat no. 83007-374; VWR) which were blocked with PBS/1% BSA overnight at 4° C. hFZD4 CRD-Fc or hFZD7 CRD-Fc (63 ng/mL) were incubated with either Bio-Wnt3a (25 ng/mL) or Bio-Wnt5a (50 ng/mL) in the presence of 4-fold serial dilutions of the indicated peptide in PBS overnight at 4° C. All assays included hFZD9 CRD-mIgG2A protein as a negative control. hFZD7 CRD-His was suspended in 150 mM NaCl, 50 mM Tris-HCl at pH 7.5 and when used in assays an equal volume of the same buffer control was used. The binding assay mixtures were transferred to the Neutravidin coated plates and incubated for ˜1 h at RT. The wells were then washed with PBST, incubated with anti-hIgG1-HRP (1:10,000 suspended in PBS supplemented with 1% BSA; cat. no. A18817, Invitrogen), and washed again with PBST. The signal was developed with the addition of TMB reagent (following the manufacturer's recommendation; KPL; 50-76-00) for 15 min prior to the addition of an equal volume of 1 M phosphoric acid for 10 min Absorbance was measured at 450 nm using a Tekan M1000 plate reader. Values were collected and plotted using Prism Graphpad software. All assay conditions using peptides were at 1% DMSO final concentration.
Without being bound be theory, the substantial conformational change induced by dFz7-21 on hFZD7 CRD, as exemplified by the altered geometry of the lipid binding cavity, may facilitate the accommodation of two Wnt molecules simultaneously onto the hFZD7 CRD dimer (FIG. 4e-h).
Similar results were observed using Wnt3a. […] Binding of Wnt3a to FZD1 CRD, FZD2 CRD, and FZD7 CRD increased in the presence of dFz7-21 at concentrations below about 0.5 μM (FIG. 22E), with the most binding seen in the presence of 0.01 μM-0.05 μM dFz7-21. […] Fz7-21S had no effect on Binding of Wnt3a to any of the FZD CRDs tested (FIG. 22F).

[3] = target: T1, Wnt5a binding to FZD7 CRD (Homo sapiens, UniProt O75084); experiment: ELISA of Wnt5a binding to FZD7 CRD, Fz7-21-derived peptide dimers; conditions: FIGS. 23A-23J
T1 construct: hFZD7 CRD-Fc (cat no. 6178-FZ); purchased R&D systems 6178-FZ
Description: as §1, with “The wells were then washed with PBST, incubated with anti-hIgG1-HRP (1:10,000 suspended in PBS supplemented with 1% BSA; cat. no. A18817, Invitrogen), and washed again with PBST.” left out, “Values were collected and plotted using Prism Graphpad software. All assay conditions using peptides were at 1% DMSO final concentration.” left out

[4] = tested on: intestinal epithelia of C57BL/6 mice; experiment: RT-PCR of intestinal epithelia from treated mice; format: in vivo, mouse; conditions: intraperitoneal, 6 h; FIGS. 20A-20C
Description: RNA from organoid samples was isolated using the RNeasy Micro kit (cat. no. 74004; Qiagen) according to the manufacturer's instructions. Mouse small intestine RNA was collected using the RNeasy Mini Kit (cat. no. 74104; Qiagen). qRT-PCR was performed in 10 μL reactions with 50 ng total RNA using One-step Real-time RT-PCR mastermix (cat. no. 4392938; Life Technologies) according to the manufacturer's instructions. Taqman probes from Life Technologies were used: Actb (Mm01205647_g1); Lgr5 (Mm01251801_m1); Axin2 (Mm00443610_m1); Ascl2 (Mm01268891_g1); Olfm4 (Mm01320260_m1); Muc2 (Mm01276696_m1); ACTB(Hs99999903_m1); ACTB(Mm00607939_s1); GAPDH (Mm99999915_g1); and GAPDH(Hs03929097_g1). RT-PCR reactions were run using a 7900HT Fast Real-Time PCR system (ABI) at the following thermal cycling conditions: Holding step of 30 min at 48° C., followed by a holding step of 10 min at 95° C., and 40 cycles of 10 sec at 95° C. and 1 min at 60° C. Values were normalized to actin transcript levels and then normalized to control as described in the figure legend.
C57BL/6 female mice (8 weeks old) were subjected to intraperitoneal injection once per hour (˜150-200 μL injection volume for five injections) until the indicated peptide dose was reached. […]
The pharmacological effect of dFz7-21 was further investigated in vivo. […] Following treatment, RT-PCR was performed to quantify transcript levels.

Row | Sequence | inhibition of Wnt1 signaling [1] | effect on Wnt3a binding to FZD1, FZD2 and FZD7 CRD [2] | effect on recruitment of Wnt5a to FZD7 CRD [3] | Lgr5, Ascl2 and Axin2 transcript levels [4]
1 | LPSDDLEFWSHVMY [Fz7-21S, negative control] | not found to inhibit | showed no effect | no effect | did not affect
2 | LPSDDLEFWCHVMY [dFz7-21] | – | – | – | significantly down regulated

Reference: patent publication US20190359653A1, “SELECTIVE PEPTIDE INHIBITORS OF FRIZZLED” (Genentech, Inc., priority 2016, published 2019)
